From ChEMBL document CHEMBL6134848, “Deuteration Strategy-Inspired Design of Novel Diarylpyrimidine Derivatives as Potent Non-Nucleoside Reverse Transcriptase Inhibitors Featuring Improved Efficacy, Selectivity, and Druggability” (J Med Chem, 2025)

Legend:
[1] = AUC (0 to t) in Sprague-Dawley rat at 10 mg/kg, po measured for 0.083 to 24 hrs by LC-MS/MS analysis; assay type: ADME, organism-based; conditions: in vivo, time 0.083-24 hrs
[2] = Stability in human plasma assessed as compound remaining at 1 uM measured after 0.5 hrs by LC-MS/MS analysis; assay type: ADME, cell-free; conditions: read-out: Stability
[3] = Acute toxicity in ICR mouse assessed as pathological change in spleen at 2000 mg/kg, IG measured for 14 days by H and E staining based analysis; assay type: organism-based; conditions: in vivo, po, 336 h, time 14 day
[4] = test system: Human immunodeficiency virus 1; test: Potency index, ratio of EFV EC50 to test compound EC50 for antiviral activity against wild-type HIV-1 IIIB infected in human MT4 cells assessed as protection against virus-induced cytopathicity measured after 5 days post-infection by MTT assay; assay type: functional

Compound: [2H]C([2H])([2H])c1cc(C#N)cc(C([2H])([2H])[2H])c1Oc1nc(NC2CCN(Cc3ccc(S(N)(=O)=O)cc3)CC2)nc2ccsc12
- AUC(0-t) [1]: 1720 ng·h/mL
- remaining at 0.5 h, 1 µM [2]: 98.9%
- Activity [3]: Non-toxic
- Ratio EC50 [4]: 5
